In patent publication US12053490B2, “Methods and compositions for treating CD33+ cancers and improving in vivo persistence of chimeric antigen receptor T cells” (ST. JUDE CHILDREN'S RESEARCH HOSPITAL, INC., priority 2017, dated 2024):

Test system: CD33 CAR T cells
Assay: Inhibitor treatment during ex vivo culture
Type: cell-based, human
Settings: for proliferating CD8^+ cells that remained CCR7^+: CellTrace Violet, control T cells about 41%; for total CD8^+ CAR T cells / T cell expansion: 4 days of inhibitor treatment
Procedure: Inhibitor treatment during ex vivo culture: CD33 CAR or control transduced T cells were labeled with CellTrace Violet (ThermoFisher) 5 days after their initial activation. […] Cells were analyzed 4 days later by flow cytometry.
Day 1: Separated PBMCs from apheresis ring of donor. Enriched human T cells by Pan T cell negative selection kit. Activate human T cells by anti-human CD3 and anti-human CD28 (1 ug/ml) coated plates overnight.
Day2: Transduced human T cells with anti-CD33 CAR gamma-retrovirus or MSCV control by retronectin coated non-tissue culture plate.
Day3: Resuspend the cells and plate them in the IL-2 RPMI medium in the tissue culture plate.
100U/ml IL-2 was added to cultures every 2 days. Cells were analyzed 4 days later by flow Cytometry.

[1] = 4 days, LY294002 10 μM, IC87114 10 μM, API-2 1 μM, rapamycin 50 nM, PP242 1 μM, DCA 10 mM, vs untreated CD33 CAR T cells

Row | SMILES | percentage of CCR7^+ cells among undivided CD8^+ cells (4 days) | CD8^+ TEM or TEFF cell numbers (4 days, 10 μM) | number of CD8^+ TN and TCM cells (4 days, same concentrations, vs untreated CD33 CAR T cells) | percent of CD8^+ TN and TCM cells [1] | proliferating CD8^+ cells that remained CCR7^+ (4 days) | CD8^+ TEM or TEFF cell percent (Example 4: 4 days, different concentrations) | percent of CD8^+ TN and TCM cells (Example 4: 4 days, different concentrations, vs untreated CD33 CAR T cells) | total CD8^+ CAR T cells / T cell expansion | number of CD8^+ TEFF cells (4 days, rapamycin 50 nM, PP242 1 μM)
1 | Cc1ccccc1-n1c(Cn2cnc3c(N)ncnc32)nc2cccc(C)c2c1=O [IC87114] | did not alter | did not significantly alter | increased significantly | increased significantly | ~33% | significant decrease | increased significantly |  | 
2 | O=C(O)C(Cl)Cl [DCA, dichloroacetic acid] |  |  |  | increased |  |  |  | significantly inhibited T cell expansion | 
3 | CC(C)n1nc(-c2cc3cc(O)ccc3[nH]2)c2c(N)ncnc21 [PP242] |  |  |  | no detectable effect |  |  |  | substantial decrease | decreased
4 | O=c1cc(N2CCOCC2)oc2c(-c3ccccc3)cccc12 [LY294002] |  |  |  |  | about 43% |  |  |  | 
